The target in test [1] is Integrin alpha-4/beta-1 (Homo sapiens) (UniProt P05556+P13612). The test can be described thus: Binding affinity to human integrin alpha4beta1 expressed in human A375 cells by flow cytometry. The test is classed as cell-based. The conditions noted are these: A-375.
The target of a further test is T1, Papain (Carica papaya) (UniProt P00784).
T1 sequence (whole entry): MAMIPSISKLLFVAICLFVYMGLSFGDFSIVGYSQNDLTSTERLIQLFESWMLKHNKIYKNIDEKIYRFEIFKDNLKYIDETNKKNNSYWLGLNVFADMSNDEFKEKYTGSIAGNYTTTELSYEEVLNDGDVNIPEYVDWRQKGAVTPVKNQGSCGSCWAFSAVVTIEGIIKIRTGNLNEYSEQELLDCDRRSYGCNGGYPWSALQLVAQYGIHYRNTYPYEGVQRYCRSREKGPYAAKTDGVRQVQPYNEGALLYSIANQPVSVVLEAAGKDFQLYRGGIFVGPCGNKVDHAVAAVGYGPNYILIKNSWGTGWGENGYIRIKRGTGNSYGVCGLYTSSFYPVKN
Kind of test: Activity at Carica papaya papain expressed in human A375 cells assessed as 7-amino-4-carbamoylmethylcoumarin release. The conditions noted are these: A-375. The test is classed as cell-based.

Activity calls are given as the source filed them. No cut-off for these calls is given here. Where a SMILES comes first, the peptide text is derived from it. The star is where a group is joined. ACC = NC(=O)Cc1cc(=O)oc2cc(N*)ccc12

For the compound `CC(C)[C@H](NC(=O)[C@@H](NC(=O)[C@H](Cc1ccccc1)NC(=O)[C@H](CCCCN)NC(=O)CNC(=O)[C@@H]1CCCN1C(=O)[C@@H](NC(=O)[C@H](Cc1ccc(O)cc1)NC(=O)[C@H](CCC(N)=O)NC(=O)[C@H](Cc1c[nH]c2ccccc12)NC(=O)[C@@H](N)CCCNC(=N)N)C(C)C)[C@@H](C)O)C(=O)N[C@@H](CCC(N)=O)C(=O)Nc1ccc2c(CC(N)=O)cc(=O)oc2c1` (H-RWQYVPGKFTVQ-{ACC}), the outcome in test [1] was inactive.

`CC(C)C[C@H](N)C(=O)N[C@@H](CC(=O)O)C(=O)N[C@H](C(=O)N[C@@H](CCCNC(=N)N)C(=O)N[C@@H](Cc1c[nH]c2ccccc12)C(=O)N[C@@H](CCC(N)=O)C(=O)N[C@@H](Cc1ccc(O)cc1)C(=O)N[C@H](C(=O)N1CCC[C@H]1C(=O)NCC(=O)N[C@@H](CCCCN)C(=O)N[C@@H](Cc1ccccc1)C(=O)N[C@H](C(=O)N[C@H](C(=O)N[C@@H](CCC(N)=O)C(=O)Nc1ccc2c(CC(N)=O)cc(=O)oc2c1)C(C)C)[C@H](C)O)C(C)C)C(C)C`: the Activity at Papain (Carica papaya) was 15.6 ng/min.
